The source made the active and inactive calls.
How the values were obtained:
fMet-Leu-Phe receptor = biological target: T1, fMet-Leu-Phe receptor (Homo sapiens, UniProt P21462); assay: FPR ligands, dose response (AID 519); type: functional
T1 sequence (P21462 whole entry): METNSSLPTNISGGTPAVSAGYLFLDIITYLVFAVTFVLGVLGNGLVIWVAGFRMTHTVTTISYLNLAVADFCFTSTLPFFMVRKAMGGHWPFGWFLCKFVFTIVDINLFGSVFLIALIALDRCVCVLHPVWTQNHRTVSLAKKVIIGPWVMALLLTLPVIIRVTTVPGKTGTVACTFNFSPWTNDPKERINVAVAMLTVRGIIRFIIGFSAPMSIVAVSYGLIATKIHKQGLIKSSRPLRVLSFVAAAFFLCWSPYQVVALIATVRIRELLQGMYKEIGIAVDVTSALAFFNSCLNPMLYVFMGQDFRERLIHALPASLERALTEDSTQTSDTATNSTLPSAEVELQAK

[1] = inhibitors of PGC1a acetylation in cells, dose response, cell-based, cherry-picked samples (AID 720514); type: functional;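 also: potency may reflect raised or lowered acetylation signal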
[2] = biological target: T2, Oxysterols receptor LXR-beta (Homo sapiens, UniProt P55055); type: functional, cell-based;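 also: agonist activity at LXR measured by a cell-based luminescence readout across a dose range, run as a counterscreen for daf-12 agonists; HEK293 cells with Gal4-LXR fusion and GAL4-driven luciferase reporter; potency for activation of Gal4-LXR reporter so compounds are agonists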
T2 sequence (P55055 whole entry): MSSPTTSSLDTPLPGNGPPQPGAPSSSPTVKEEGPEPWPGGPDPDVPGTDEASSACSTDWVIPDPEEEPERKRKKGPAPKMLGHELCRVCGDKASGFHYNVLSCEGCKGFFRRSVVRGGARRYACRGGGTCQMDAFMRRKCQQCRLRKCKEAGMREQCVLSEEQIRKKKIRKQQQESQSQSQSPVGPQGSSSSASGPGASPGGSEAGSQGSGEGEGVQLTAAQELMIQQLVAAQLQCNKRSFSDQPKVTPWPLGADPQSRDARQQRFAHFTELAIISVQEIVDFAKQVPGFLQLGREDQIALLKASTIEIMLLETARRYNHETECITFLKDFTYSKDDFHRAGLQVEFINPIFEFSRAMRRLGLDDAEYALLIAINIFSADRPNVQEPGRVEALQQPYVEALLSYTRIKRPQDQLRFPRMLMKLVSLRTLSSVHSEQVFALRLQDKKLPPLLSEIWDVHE

[3] = A375 melanoma cell viability loss, dose response, counter-screen for MITF inhibitor project, CellTiter-Glo luminescence, dry powder, set 4 (AID 624364); type: functional, cell-based; conditions: A-375;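 also: A375 melanoma cells are MITF independent so this is a counter screen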
[4] = A375 melanoma cell cytotoxicity, dose response, counter-screen for MITF inhibitor project, CellTiter-Glo luminescence, dry powder, set 2 (AID 624489); type: functional, cell-based; conditions: A-375;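 also: actives are compounds lowering A375 viability meaning general cytotoxicity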
Paired box protein Pax-8 = Paired box protein Pax-8 (Homo sapiens, UniProt Q06710); assay: inhibitors of PAX8-driven TPO luciferase reporter, dose response, RMG-I cells, cherry-pick (AID 687027); type: functional, cell-based;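 also: luciferase reporter driven by Pax8 target thyroperoxidase promoter measured by SteadyGlo luminescence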
[5] = inhibitors of clade B AD8 Env fusion, dose response, cell-based, cherry-pick (AID 652062); type: functional;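 also: luciferase signal from cell-cell fusion driven by HIV-1 clade B AD8 Env; potency is for inhibitors of fusion seen as a drop in luminescence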
[6] = inhibitors of HIV Env-driven cell fusion, dose response, cherry-pick (AID 652057); type: functional, cell-based
[7] = ZM109 Env clade C HIV-1 fusion inhibitors, dose response, HeLa effector, CEM target cells, luciferase, cherry-pick (AID 652058); type: functional, cell-based
[8] = off-target signal loss in HeLa-CEM21 co-culture – HeLa F-luc CTL cells, cherry-picked, counter-screen for HIV-1 Env fusion inhibitor project, dose response (AID 652040); type: functional, cell-based;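 also: potency for signal decrease marking cytotoxic or nonspecific inhibition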
[9] = Artemis endonuclease inhibitor potency, dose response, biochemical, fluorescence intensity (AID 720701); type: functional;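 also: Artemis endonuclease enzyme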
[10] = biological target: T3, Calpain-2 catalytic subunit (Sus scrofa, UniProt P43367); assay: pig calpain II inhibitor potency, dose response, biochemical, fluorogenic peptide substrate (AID 1420); type: functional
T3 sequence (P43367 whole entry): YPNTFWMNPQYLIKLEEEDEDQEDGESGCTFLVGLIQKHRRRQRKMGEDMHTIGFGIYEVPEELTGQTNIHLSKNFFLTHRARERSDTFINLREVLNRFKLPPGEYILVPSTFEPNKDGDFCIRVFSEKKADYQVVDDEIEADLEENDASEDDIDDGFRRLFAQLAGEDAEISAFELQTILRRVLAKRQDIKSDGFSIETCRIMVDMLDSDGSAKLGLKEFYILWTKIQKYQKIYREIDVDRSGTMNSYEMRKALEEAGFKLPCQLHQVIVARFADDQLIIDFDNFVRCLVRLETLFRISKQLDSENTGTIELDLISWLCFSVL

[11] = biological target: Heat shock protein HSP 90-alpha (Homo sapiens, UniProt P07900); type: functional, organism-based
[12] = microbe, parasite or virus in culture; type: functional; conditions: Mycobacterium tuberculosis
Phospholipase A2 = Phospholipase A2 (Homo sapiens, UniProt P04054); type: functional;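 also: confirmatory dose-response counterscreen on phospholipase A2, testing hits that came from an ultra-high-throughput screen for ATG4B inhibitors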
Cysteine protease ATG4B = biological target: T4, Cysteine protease ATG4B (Homo sapiens, UniProt Q9Y4P1); type: functional;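 also: Fluorescence-based dose-response confirmation assay measuring inhibition of ATG4B activity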
T4 sequence (Q9Y4P1 whole entry): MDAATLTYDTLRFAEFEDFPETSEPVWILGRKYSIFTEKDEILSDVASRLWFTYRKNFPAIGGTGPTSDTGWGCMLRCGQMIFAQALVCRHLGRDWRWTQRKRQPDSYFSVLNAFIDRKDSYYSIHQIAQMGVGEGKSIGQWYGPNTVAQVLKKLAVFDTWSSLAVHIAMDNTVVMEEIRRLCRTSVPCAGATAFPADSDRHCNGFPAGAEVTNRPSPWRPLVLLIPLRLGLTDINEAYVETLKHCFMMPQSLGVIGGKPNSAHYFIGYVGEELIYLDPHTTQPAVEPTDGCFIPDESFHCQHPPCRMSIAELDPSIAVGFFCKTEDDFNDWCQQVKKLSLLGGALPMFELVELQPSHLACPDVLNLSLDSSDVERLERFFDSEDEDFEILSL

[13] = cytotoxicity in HPDE-C7 cells, cell-based, fluorescence, HTS (AID 430); type: functional; conditions: Homo sapiens
[14] = cytotoxicity in KRAS-transformed pancreatic duct cells, primary screen, cell-based, fluorescence, HTS (AID 431); type: functional; conditions: Homo sapiens;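 also: cell line used: HPDE-C7K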
[15] = MC4R antagonists, dose response, counter-screen for LGR2 antagonist project, cell-based, plate reader, cherry pick (AID 743444); type: functional;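 also: transfected HEK 293 cells stimulated with alpha-MSH peptide; potency of inhibitors of the alpha-MSH evoked signal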
[16] = LGR2 antagonists, dose response, cell-based, HEK293, CRE-luciferase reporter, cherry pick, set 2 (AID 743343); type: functional;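 also: transfected cells were stimulated with diluted bursicon conditioned medium after compound addition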
[17] = HEK293 cell cytotoxicity, dose response, cytotoxicity control, plate reader, cherry-picked samples (AID 743446); type: functional, cell-based
[18] = THP-1 cell cytotoxicity, dose response, cytotoxicity control for Vif-APOBEC3G degradation inhibitor project, THP-1 cells (AID 1117359); type: functional; conditions: Human immunodeficiency virus 1, THP-1
[19] = biological target: Eukaryotic translation initiation factor 4E (Mus musculus, UniProt P63073); assay: eIF4E–eIF4G protein interaction inhibitors, dose response, biochemical, TR-FRET (AID 855); type: functional;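 also: potency for disrupting eIF4E binding to eIF4GI seen as loss of FRET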
[20] = biological target: Induced myeloid leukemia cell differentiation protein Mcl-1 (Homo sapiens, UniProt Q07820); type: functional
[21] = A2780 ovarian cancer cell cytotoxicity, dose response, cytotoxicity control, plate reader, dry powder samples (AID 743046); type: functional, cell-based
[22] = cytotoxicity in OVCAR8 ovarian cancer cells, dose response, PAX8 project, cell-based, plate reader, dry powder samples (AID 743197); type: functional; conditions: OVCAR-8
[23] = NIH:OVCAR-3 ovarian cancer cell cytotoxicity, dose response, PAX8 inhibitor project, plate reader, dry powder samples (AID 743044); type: functional, cell-based
[24] = biological target: T5, Low molecular weight phosphotyrosine protein phosphatase (Homo sapiens, UniProt P24666); type: functional; conditions: read-out: IC50_Mean;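 also: Dose-response confirmation assay measuring inhibition of LMPTP enzyme activity by fluorescence intensity read-out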
T5 sequence (P24666 whole entry): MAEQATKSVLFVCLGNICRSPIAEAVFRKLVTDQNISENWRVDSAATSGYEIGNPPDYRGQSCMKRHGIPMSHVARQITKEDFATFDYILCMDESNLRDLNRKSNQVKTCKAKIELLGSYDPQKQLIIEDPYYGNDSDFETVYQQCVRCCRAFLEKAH

[25] = non-specific cell cytotoxicity, dose response, cytotoxicity control for PAX8 inhibitor project, plate reader, dry powder samples (AID 743021); type: functional, cell-based
[26] = HepG2 cell cytotoxicity, dose response, cytotoxicity control, plate reader, cherry-pick, antagonist series (AID 743416); type: functional, cell-based
[27] = biological target: Peroxisome proliferator-activated receptor gamma/Nuclear receptor coactivator 3 (Homo sapiens, UniProt P37231); type: functional;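 also: agonist potency for raising coactivator recruitment to the receptor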
[28] = biological target: Peroxisome proliferator-activated receptor gamma/Nuclear receptor coactivator 1 (Homo sapiens, UniProt P37231); type: functional;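 also: agonist potency as compounds enhance coactivator SRC-1 recruitment to PPARgamma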
[29] = biological target: Peroxisome proliferator-activated receptor gamma/Nuclear receptor coactivator 2 (Homo sapiens, UniProt P37231); type: functional;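 also: agonist potency for raising coactivator recruitment to the receptor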
[30] = growth suppression of PTEN-null colon cells, dose response, cell-based, HCT116 PTEN knockout (AID 1047); type: functional;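 also: HCT116 colon tumor cells with PTEN knocked out; cells exposed to compound for 60 hours before readout; potency for loss of cell viability measured by luminescence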
[31] = growth suppression of beta-catenin-knockout colon cells, dose response, cell-based, HCT116, human colon tumor (AID 1045); type: functional;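 also: HCT116 colon tumor cells with beta catenin knocked out; cells exposed to compound for 60 hours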
[32] = HEp-2 cell cytotoxicity, dose response, cytotoxicity control for RSV inhibitor project, HTS (AID 2410); type: functional; conditions: human respiratory syncytial virus
Streptococcus = assay: Group A Streptococcus viability loss, dose response, counter-screen for streptokinase expression inhibitor project, luminescence, BacTiterGlo (AID 1915); type: functional, organism-based;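 also: potency for reduction of bacterial viability or growth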
[33] = tested on: Streptococcus sp. 'group A'; assay: growth inhibition of control SK(-) GAS strain, dose response, counter-screen for streptokinase expression inhibitor project, luminescence, kanamycin, BacTiterGlo, confirmation (AID 1900); type: functional, organism-based
Mu-type opioid receptor = Mu-type opioid receptor (Homo sapiens, UniProt P35372); type: functional, cell-based;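 also: U2OS cells with beta-arrestin recruitment to OPRM1 by beta-gal complementation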
[34] = biological target: 5-hydroxytryptamine receptor 2A (Mus musculus, UniProt P35363); type: functional, cell-based;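 also: CHO-K1 cells with tagged receptor and beta-arrestin; agonist potency measured as compound-induced activation of the receptor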
Sequence of 5-hydroxytryptamine receptor 2A (P35363 whole entry): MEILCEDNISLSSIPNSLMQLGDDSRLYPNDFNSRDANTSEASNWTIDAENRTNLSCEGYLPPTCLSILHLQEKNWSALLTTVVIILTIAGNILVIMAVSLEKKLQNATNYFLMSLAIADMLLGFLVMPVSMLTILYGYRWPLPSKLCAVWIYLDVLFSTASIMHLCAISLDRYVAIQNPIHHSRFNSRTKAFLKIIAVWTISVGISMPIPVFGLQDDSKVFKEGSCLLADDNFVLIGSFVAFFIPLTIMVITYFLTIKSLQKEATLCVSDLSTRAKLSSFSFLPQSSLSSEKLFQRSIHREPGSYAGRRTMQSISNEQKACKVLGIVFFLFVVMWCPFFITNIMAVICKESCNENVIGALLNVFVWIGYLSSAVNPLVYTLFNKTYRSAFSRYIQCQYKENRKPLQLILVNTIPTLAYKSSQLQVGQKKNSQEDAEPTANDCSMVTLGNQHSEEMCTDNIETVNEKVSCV

Sequence of Paired box protein Pax-8 (Q06710 whole entry, the tested form may be a part): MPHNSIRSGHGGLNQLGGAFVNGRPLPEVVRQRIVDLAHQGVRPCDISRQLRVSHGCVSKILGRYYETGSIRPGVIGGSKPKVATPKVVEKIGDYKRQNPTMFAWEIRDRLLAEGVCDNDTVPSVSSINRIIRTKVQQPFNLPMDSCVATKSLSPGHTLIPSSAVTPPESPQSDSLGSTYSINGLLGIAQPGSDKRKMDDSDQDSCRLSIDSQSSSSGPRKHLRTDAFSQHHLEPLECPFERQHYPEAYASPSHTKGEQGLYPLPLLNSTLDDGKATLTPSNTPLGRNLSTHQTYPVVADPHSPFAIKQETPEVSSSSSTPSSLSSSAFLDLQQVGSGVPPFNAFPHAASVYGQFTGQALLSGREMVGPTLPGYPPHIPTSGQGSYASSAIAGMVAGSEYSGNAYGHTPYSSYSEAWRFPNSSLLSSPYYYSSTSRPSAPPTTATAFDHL
Sequence of Eukaryotic translation initiation factor 4E (P63073 whole entry): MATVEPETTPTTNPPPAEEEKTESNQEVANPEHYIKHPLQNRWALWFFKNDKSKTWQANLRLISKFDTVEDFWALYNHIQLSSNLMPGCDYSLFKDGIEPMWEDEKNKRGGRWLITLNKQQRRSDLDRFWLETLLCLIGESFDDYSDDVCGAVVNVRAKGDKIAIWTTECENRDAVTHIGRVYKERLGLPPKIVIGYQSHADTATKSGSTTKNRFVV
Sequence of Mu-type opioid receptor (P35372 whole entry): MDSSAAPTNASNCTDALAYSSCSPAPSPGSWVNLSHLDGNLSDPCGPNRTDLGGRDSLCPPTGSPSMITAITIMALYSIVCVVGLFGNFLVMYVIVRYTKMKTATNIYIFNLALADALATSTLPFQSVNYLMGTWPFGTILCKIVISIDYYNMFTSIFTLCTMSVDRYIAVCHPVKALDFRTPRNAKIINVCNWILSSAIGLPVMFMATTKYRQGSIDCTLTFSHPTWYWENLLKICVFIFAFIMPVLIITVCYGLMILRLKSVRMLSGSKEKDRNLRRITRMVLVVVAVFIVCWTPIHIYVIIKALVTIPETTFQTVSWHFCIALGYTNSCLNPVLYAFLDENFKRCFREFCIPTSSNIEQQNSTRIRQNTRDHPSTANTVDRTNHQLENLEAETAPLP
Sequence of Phospholipase A2 (P04054 whole entry): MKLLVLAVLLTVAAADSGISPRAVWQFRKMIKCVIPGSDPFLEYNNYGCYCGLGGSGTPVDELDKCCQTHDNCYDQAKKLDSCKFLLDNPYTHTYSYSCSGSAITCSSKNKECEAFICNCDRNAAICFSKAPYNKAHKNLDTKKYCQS
Sequence of Induced myeloid leukemia cell differentiation protein Mcl-1 (Q07820 whole entry): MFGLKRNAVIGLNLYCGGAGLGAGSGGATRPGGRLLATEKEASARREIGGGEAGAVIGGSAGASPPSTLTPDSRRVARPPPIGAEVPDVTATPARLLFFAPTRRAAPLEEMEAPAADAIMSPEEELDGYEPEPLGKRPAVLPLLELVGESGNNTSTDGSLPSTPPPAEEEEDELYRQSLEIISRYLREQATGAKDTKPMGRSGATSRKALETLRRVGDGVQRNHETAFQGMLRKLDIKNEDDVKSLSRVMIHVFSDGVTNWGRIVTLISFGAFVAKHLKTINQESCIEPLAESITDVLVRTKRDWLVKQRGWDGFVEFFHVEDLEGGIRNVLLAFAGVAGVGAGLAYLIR
Sequence of Peroxisome proliferator-activated receptor gamma/Nuclear receptor coactivator 2 (P37231 whole entry): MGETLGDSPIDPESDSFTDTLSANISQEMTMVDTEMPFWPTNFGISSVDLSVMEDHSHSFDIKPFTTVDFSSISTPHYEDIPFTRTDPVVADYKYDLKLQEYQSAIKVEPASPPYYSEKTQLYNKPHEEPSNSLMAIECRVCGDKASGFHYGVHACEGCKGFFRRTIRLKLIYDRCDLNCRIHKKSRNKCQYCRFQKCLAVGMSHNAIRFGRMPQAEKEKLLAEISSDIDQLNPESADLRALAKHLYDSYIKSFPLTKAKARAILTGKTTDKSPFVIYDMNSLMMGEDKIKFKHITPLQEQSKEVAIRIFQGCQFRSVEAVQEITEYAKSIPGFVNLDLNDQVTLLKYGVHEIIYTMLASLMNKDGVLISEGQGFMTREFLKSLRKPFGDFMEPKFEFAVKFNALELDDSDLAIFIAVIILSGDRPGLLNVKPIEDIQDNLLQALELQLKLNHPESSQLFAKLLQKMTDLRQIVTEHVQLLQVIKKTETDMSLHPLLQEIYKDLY
Sequence of Peroxisome proliferator-activated receptor gamma/Nuclear receptor coactivator 2 (Q15596 whole entry, further chain): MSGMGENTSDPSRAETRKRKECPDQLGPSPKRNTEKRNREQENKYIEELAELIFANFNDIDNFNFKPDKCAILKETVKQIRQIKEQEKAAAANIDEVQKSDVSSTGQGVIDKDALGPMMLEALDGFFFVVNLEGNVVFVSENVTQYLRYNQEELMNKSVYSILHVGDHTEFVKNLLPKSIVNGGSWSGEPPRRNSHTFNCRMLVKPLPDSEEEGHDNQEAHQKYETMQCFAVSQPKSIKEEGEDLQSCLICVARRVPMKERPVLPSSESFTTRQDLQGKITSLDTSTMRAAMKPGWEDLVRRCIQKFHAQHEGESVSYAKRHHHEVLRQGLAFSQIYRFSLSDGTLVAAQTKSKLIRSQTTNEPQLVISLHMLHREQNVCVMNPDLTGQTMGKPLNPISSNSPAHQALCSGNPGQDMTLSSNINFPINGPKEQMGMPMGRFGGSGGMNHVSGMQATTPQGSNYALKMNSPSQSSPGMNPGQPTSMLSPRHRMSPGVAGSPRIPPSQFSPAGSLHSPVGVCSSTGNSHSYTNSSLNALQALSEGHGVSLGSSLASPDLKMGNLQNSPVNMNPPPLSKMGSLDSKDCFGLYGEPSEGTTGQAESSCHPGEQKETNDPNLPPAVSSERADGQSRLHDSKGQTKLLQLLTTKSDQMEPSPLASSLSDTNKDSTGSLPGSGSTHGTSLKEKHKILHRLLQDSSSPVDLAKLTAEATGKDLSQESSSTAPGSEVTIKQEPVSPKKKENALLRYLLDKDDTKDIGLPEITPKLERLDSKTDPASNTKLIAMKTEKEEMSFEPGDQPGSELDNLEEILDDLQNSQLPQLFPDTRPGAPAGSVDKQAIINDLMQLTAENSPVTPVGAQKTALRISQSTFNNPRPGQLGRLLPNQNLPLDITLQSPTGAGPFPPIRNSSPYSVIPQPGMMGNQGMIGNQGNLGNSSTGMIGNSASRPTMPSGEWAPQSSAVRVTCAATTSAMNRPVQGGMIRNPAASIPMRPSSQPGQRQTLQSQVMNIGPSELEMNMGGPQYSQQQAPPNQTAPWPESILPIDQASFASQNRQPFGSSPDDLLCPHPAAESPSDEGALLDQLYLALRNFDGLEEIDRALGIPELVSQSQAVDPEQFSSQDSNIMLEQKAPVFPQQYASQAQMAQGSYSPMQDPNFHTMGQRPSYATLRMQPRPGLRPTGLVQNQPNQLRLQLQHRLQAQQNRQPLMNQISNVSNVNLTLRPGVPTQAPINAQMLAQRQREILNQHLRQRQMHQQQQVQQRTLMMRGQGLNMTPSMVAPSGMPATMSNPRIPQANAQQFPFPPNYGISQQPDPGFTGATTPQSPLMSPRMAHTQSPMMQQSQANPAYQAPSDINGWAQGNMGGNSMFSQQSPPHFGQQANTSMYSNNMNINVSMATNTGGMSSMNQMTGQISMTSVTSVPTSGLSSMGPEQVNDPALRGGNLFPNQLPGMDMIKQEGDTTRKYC

For `CC1CCN(S(=O)(=O)c2ccc3c(c2)oc(=O)n3CC(=O)NCc2ccc3c(c2)OCO3)CC1`, the Ki (fMet-Leu-Phe receptor) was > 66.7 µM (inactive).

With `Oc1cc(CSc2ccccn2)nc(O)n1` the AC50 [1] was 1.86 µM (active).

With `COc1ccccc1-c1noc(-c2cccs2)n1` the EC50 [2] was > 67.5 µM (inactive).

With `C=CCNC1=C(NCCCN(CC)CC)C(=O)c2ccccc2C1=O` the AC50 [3] was 25.3 µM (active) and the AC50 [4] was 17.9 µM (active).

With `COc1cc(/C=N/NS(=O)(=O)c2ccc(C)cc2)ccc1OCc1cccc(C(=O)O)c1` the AC50 (Paired box protein Pax-8) was 13 µM (active), the AC50 [5] was 6.48 µM (active) and the AC50 [6] was 2.17 µM (active). The AC50 [7] was 19.5 µM (active) and the AC50 [8] was 5.81 µM (active).

For `CNc1nc(-c2c[nH]c3ccccc23)cs1`, the IC50 [9] was > 20 µM (inactive).

For `c1ccc(-c2ccc(C(c3ccccc3)n3ccnc3)cc2)cc1` (stereo not given) [BIFONAZOLE], the IC50 [10] was 14.7 µM (not active), the AC50 [11] was 1.06 µM (active) and the CC50 [12] was > 40 µM (active). For the same compound, the IC50 (Phospholipase A2) was 8.89 µM (active), the IC50 (Cysteine protease ATG4B) was 8.5 µM (active) and the EC50 [13] was > 20 µM (not active). The EC50 [14] was 17.8 µM (active).

For `Cc1ccc(C(=O)C2C(=O)C3CCC2C3)cc1` (stereo not given), the AC50 [15] was 4.95 µM (active), the AC50 [16] was 8.6 µM (active) and the AC50 [17] was > 52 µM (inactive).

In the case of `O=[N+]([O-])c1cc(CN2CCOCC2)c2cccnc2c1O`, the CC50 [18] was > 40 µM (active), the IC50 [19] was 50 µM (inactive) and the IC50 [20] was 2.93 µM (active).

In the case of `C[C@@H]1CCCCO[C@H](CN(C)C(=O)Cc2ccccc2)[C@@H](C)CN([C@@H](C)CO)C(=O)c2cc(NS(=O)(=O)c3ccc(Cl)cc3)ccc2O1`, the AC50 [21] was 48.6 µM (active), the AC50 [22] was 39.2 µM (active) and the AC50 (Paired box protein Pax-8) was 7.18 µM (active). For the same compound, the AC50 [23] was 23.3 µM (active).

In the case of `ON=C(CCc1ccccc1)c1ccccc1`, the EC50 [2] was > 67.5 µM (inactive).

With `CN(Cc1cc2ccccc2nc1O)S(C)(=O)=O` the EC50 [13] was > 20 µM (not active) and the EC50 [14] was > 20 µM (not active).

With `Oc1cc(-c2ccccc2)nc2nc(-c3ccco3)nn12` the IC50 [24] was 80 µM (inactive) and the IC50 [9] was > 20 µM (inactive).

For `COc1ccccc1C#Cc1ccc2c(c1)O[C@@H](CN(C)Cc1cccnc1)[C@H](C)CN([C@H](C)CO)S2(=O)=O`, the AC50 [1] was 5.09 µM (active), the AC50 [22] was 18.3 µM (active) and the AC50 (Paired box protein Pax-8) was 2.04 µM (active). For the same compound, the AC50 [25] was 21.8 µM (active).

For `CCOC(=O)C1CCN(Cc2ccc(C(=O)OC)cc2)CC1`, the Ki (fMet-Leu-Phe receptor) was > 66.7 µM (inactive).

In the case of `COc1ccc(NC(=O)Nc2ccc3c(c2)CC(=O)N([C@@H](C)CO)C[C@@H](C)[C@H](CN(C)Cc2ccncc2)O3)cc1`, the AC50 [26] was > 52 µM (inactive) and the AC50 [17] was > 52 µM (inactive).

For `COc1ccc(Br)cc1C(=O)N/N=C/c1ccc([N+](=O)[O-])cc1`, the EC50 [27] was > 79.4 µM (not active), the EC50 [28] was > 79.4 µM (not active) and the EC50 [29] was > 79.4 µM (not active).

In the case of `O=C(NC1=C(c2ccc(OC(F)(F)F)cc2)C(=O)c2ccccc2C1=O)c1ccccc1`, the AC50 [3] was 28.5 µM (active) and the AC50 [4] was 20.7 µM (active).

In the case of `O=[N+]([O-])c1ccc(/C=N/Nc2nc(-c3ccccc3)c3cc(Br)ccc3n2)o1`, the EC50 [30] was 26.1 µM (active), the EC50 [31] was 29.7 µM (active) and the IC50 [24] was 80 µM (inactive). For the same compound, the CC50 [32] was > 50 µM (active), the EC50 (Streptococcus) was 0.934 µM (active) and the EC50 [33] was 0.703 µM (active). For the same compound, the IC50 [9] was 6.57 µM (active).

In the case of `Oc1cc2c(cc1O)[C@@H](c1ccccc1)CNCC2`, the CC50 [18] was > 40 µM (active), the EC50 (Mu-type opioid receptor) was 92.7 µM (inactive) and the EC50 [34] was 28.2 µM (inactive).

Source: ChEMBL document CHEMBL1201862, “PubChem BioAssay data set” (2004)
